Measurements as given in patent US9023789B2, “Amylin analogs and pharmaceutical compositions thereof” (Novo Nordisk A/S, priority 2012, dated 2015).
≈ marks a conversion by molar mass, not a printed value. Like-named read-outs stand apart in the source and are kept apart here. Numbered stars: 1 amine (or outer) side, 2 acyl side, 3 side chain; on linkers, the order of the positions; unused ones are H or OH. Bridge positions count the residues as written; N and C are the ends. Side chains are listed from the residue outwards. Peptide text beside a SMILES is read from it. * marks the point of attachment. C20 diacid = O=C(O)CCCCCCCCCCCCCCCCCCC(=O)*; γGlu = O=C(O)[C@H](CCC(=O)[*:2])N[*:1]

How the values were obtained:
[1] = ASSAY (IV) determination of solubility; assay type: physicochemical
In short: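 Polypeptide in water at […] mixed 1:1 with 100 mM buffers of pH 3.0-8.0 (glycylglycine pH 3-5, bistrispropane pH 6-8). Held 18 h at room temperature, then centrifuged; concentration remaining in solution measured by UPLC.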

[2] = molecular target: T1, rat calcitonin receptor (Rattus norvegicus, UniProt P32214); test: ASSAY (VIII) binding to the rat calcitonin receptor; details: Table 7, read-out: rCTR bind IC50
T1 construct: expressed in transfected cells; host or cells: BHK tk'ts 13 (transient, FuGENE 6), membranes
T1 sequence (P32214 25-479 isoform P32214-2 limits assumed): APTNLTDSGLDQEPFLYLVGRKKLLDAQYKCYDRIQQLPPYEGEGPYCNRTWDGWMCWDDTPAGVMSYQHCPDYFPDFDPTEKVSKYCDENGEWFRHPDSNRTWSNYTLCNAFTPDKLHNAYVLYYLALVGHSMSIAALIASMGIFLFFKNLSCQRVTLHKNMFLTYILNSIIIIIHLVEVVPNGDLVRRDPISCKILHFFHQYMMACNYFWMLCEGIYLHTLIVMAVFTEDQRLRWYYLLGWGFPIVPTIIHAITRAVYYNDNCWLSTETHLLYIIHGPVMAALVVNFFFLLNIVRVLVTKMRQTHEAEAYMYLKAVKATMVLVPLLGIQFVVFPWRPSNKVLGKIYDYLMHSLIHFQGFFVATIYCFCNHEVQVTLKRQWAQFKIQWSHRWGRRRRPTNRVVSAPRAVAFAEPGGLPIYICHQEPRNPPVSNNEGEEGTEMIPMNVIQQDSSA
In short: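 Membranes were prepared from BHK tk′ts 13 cells transiently transfected with rat calcitonin receptor. Cells were grown in DMEM with 10% FBS and harvested approximately 48 hours after transfection.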

[3] = test system: Sprague Dawley (SD) rats; test: ASSAY (I) efficacy testing on appetite (food intake) using an ad libitum fed rat model; assay type: in vivo; details: rat, 30 nmol/kg
In short: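 Ad libitum fed SD rats (200–250 g) were housed singly on a reversed light/dark cycle and given one 0.01–3 mg/kg dose ip, po or sc just before lights-off, with 5–8 per dose group plus vehicle controls. Food intake was recorded hourly for 7 h, then at 24 h and sometimes 48 h; Grubbs outliers were excluded.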

[4] = molecular target: T2, rat amylin receptor (rat calcitonin receptor + rat RAMP 3) (Rattus norvegicus, UniProt P32214+Q9JJ73); test: ASSAY (VI) binding to the rat amylin receptor; details: for IC50: binding to rat amylin receptor, read-out: rAmylin-R bind IC50
T2 construct: expressed in transfected cells; host or cells: BHK tk'ts 13 (transient, FuGENE 6), membranes
T2 sequence (P32214 25-479 isoform P32214-2 limits assumed): T1 sequence (P32214 25-479 isoform P32214-2 limits assumed)
T2 sequence (Q9JJ73 23-147 partner): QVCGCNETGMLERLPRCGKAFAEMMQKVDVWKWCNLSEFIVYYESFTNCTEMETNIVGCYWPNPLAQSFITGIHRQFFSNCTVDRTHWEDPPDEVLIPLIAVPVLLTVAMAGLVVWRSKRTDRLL
In short: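 Binding to the rat amylin receptor was determined with membrane preparations. The receptor was expressed by transiently transfecting BHK tk′ts 13 cells with rat calcitonin receptor, using FuGENE® 6 (Roche) according to the manufacturer's recommendations. Roughly 48 hours later the cells were harvested and their membranes isolated.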

[5] = molecular target: T3, human amylin receptor (membranes from Amylin 3(a)/CRE-luc cells) (Homo sapiens, UniProt O60896+P30988); test: ASSAY (V) binding to the human amylin receptor (SPA, 125I-rat amylin);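 further: competition binding of cell membranes (35 ng/µL) mixed with SPA beads in 384-well plates at 40 µL total volume, read by scintillation counting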
T3 construct: expressed in transfected cells
T3 sequence (P30988 25-474): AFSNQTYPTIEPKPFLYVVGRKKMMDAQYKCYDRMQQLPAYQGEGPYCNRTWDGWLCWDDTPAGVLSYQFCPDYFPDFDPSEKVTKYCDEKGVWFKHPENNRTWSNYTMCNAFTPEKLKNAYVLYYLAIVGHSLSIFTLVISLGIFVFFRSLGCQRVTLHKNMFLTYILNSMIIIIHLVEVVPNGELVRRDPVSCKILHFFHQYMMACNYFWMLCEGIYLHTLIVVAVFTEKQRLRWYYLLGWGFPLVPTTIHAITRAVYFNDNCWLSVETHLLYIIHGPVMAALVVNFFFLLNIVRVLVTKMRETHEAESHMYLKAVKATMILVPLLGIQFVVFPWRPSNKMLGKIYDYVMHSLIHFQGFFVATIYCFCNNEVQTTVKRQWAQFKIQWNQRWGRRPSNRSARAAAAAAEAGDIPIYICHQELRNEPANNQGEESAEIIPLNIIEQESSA
T3 sequence (O60896 24-148 partner): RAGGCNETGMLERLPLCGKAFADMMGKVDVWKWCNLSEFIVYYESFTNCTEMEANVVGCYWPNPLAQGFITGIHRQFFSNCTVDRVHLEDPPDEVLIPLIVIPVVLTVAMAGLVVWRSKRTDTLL

[6] = bistrispropane buffer, pH 6.5, read-out: Solubility pH 6.5 Concentration
[7] = bistrispropane buffer, pH 7.5, read-out: Solubility pH 7.5 Concentration
[8] = bistrispropane buffer, pH 6.0, read-out: Solubility pH 6.0 Concentration
[9] = bistrispropane buffer, pH 7.0, read-out: Solubility pH 7.0 Concentration
[10] = bistrispropane buffer, pH 8.0, read-out: Solubility pH 8.0 Concentration
[11] = glycylglycine buffer, pH 3.0, read-out: Solubility pH 3.0 Concentration
[12] = glycylglycine buffer, pH 4.0, read-out: Solubility pH 4.0 Concentration
[13] = glycylglycine buffer, pH 5.0, read-out: Solubility pH 5.0 Concentration
[14] = Table 7, rat binding selectivity, rCTR IC50 / rAmylin-R IC50
[15] = Table 7a (preferred compounds), rat binding selectivity, rCTR IC50 / rAmylin-R IC50
[16] = ratio of rCTR bind IC50 to rAmylin-R bind IC50
[17] = Table 5, selectivity, hCTR bind IC50 / hAmylin-R bind IC50
[18] = Table 5a, selectivity, hCTR bind IC50 / hAmylin-R bind IC50
[19] = Table 5b, selectivity, hCTR bind IC50 / hAmylin-R bind IC50
[20] = Table 5c, selectivity, hCTR bind IC50 / hAmylin-R bind IC50
[21] = Table 7, human binding selectivity, included for comparison
[22] = Table 7a (preferred compounds), human binding selectivity, included for comparison
[23] = ratio of human calcitonin receptor binding IC50 to human amylin receptor binding IC50

SMILES | solubility at 18 h [1, 6] [µM] | solubility at 18 h [1, 7] [µM] | solubility at 18 h [1, 8] [µM] | solubility at 18 h [1, 9] [µM] | solubility at 18 h [1, 10] [µM] | solubility at 18 h [1, 11] [µM] | solubility at 18 h [1, 12] [µM] | solubility at 18 h [1, 13] [µM] | IC50 [2] [nM] | Food intake reduction 0-24 h 30 nmol/kg (%) [3] [%] | Food intake reduction 24-48 h 30 nmol/kg (%) [3] [%] | IC50 ([4]; Table 7) [nM] | Ratio rCT/rAmylin binding [4, 14] | Ratio rCT/rAmylin binding [4, 15] | Ratio rCT/rAmylin binding [4, 16] | Ratio hCT/hAmylin binding [5, 17] | Ratio hCT/hAmylin binding [5, 18] | Ratio hCT/hAmylin binding [5, 19] | Ratio hCT/hAmylin binding [5, 20] | Ratio hCT/hAmylin binding [5, 21] | further results
CC[C@H](C)[C@H](NC(=O)[C@H](C)NC(=O)CNC(=O)[C@H](Cc1ccccc1)NC(=O)[C@H](CC(N)=O)NC(=O)[C@@H]1CCCN1C(=O)[C@H](CO)NC(=O)[C@H](CO)NC(=O)[C@H](Cc1c[nH]cn1)NC(=O)[C@H](CCCNC(=N)N)NC(=O)[C@H](CC(C)C)NC(=O)[C@H](Cc1ccccc1)NC(=O)[C@H](CC(N)=O)NC(=O)[C@H](C)NC(=O)[C@H](CC(C)C)NC(=O)[C@H](CCCNC(=N)N)NC(=O)[C@H](CCC(N)=O)NC(=O)[C@@H](NC(=O)[C@H](C)NC(=O)[C@@H]1CSSC[C@H](NC(=O)[C@@H](N)CCCCNC(=O)CC[C@H](NC(=O)CCCCCCCCCCCCCCC(=O)O)C(=O)O)C(=O)N[C@@H](CC(N)=O)C(=O)N[C@@H]([C@@H](C)O)C(=O)N[C@@H](C)C(=O)N[C@@H]([C@@H](C)O)C(=O)N1)[C@@H](C)O)C(=O)N1CCC[C@H]1C(=O)N[C@@H](CO)C(=O)N[C@@H](CO)C(=O)N[C@H](C(=O)N[C@@H](CC(N)=O)C(=O)N[C@H](C(=O)NCC(=O)N[C@@H](Cc1c[nH]cn1)C(=O)N[C@@H](CC(N)=O)C(=O)N[C@H](C(=O)N[C@@H](Cc1ccc(O)cc1)C(N)=O)[C@@H](C)O)C(C)C)[C@@H](C)O [Example 111] | ≥ 200 | ≥ 200 | ≥ 200 | ≥ 200 | 165 (≈ 722 µg/mL) | ≥ 200 | ≥ 200 | ≥ 200 | 404 | 17 | 0 | 1.24 | 326.8 | 326.8 | 326.8 | 18.5 | 18.5 | 18.5 | 18.5 | 18.5 | Ratio hCT/hAmylin binding [5, 22]: 18.5; Ratio hCT/hAmylin binding [5, 23]: 18.5
CC[C@H](C)[C@H](NC(=O)[C@H](C)NC(=O)CNC(=O)[C@H](Cc1ccccc1)NC(=O)[C@H](CC(N)=O)NC(=O)[C@@H]1CCCN1C(=O)[C@H](CO)NC(=O)[C@H](CO)NC(=O)[C@H](Cc1c[nH]cn1)NC(=O)[C@H](CCCNC(=N)N)NC(=O)[C@H](CC(C)C)NC(=O)[C@H](Cc1ccccc1)NC(=O)[C@H](CCC(=O)O)NC(=O)[C@H](C)NC(=O)[C@H](CC(C)C)NC(=O)[C@H](CCCNC(=N)N)NC(=O)[C@H](CCC(N)=O)NC(=O)[C@@H](NC(=O)[C@H](C)NC(=O)[C@@H]1CSSC[C@H](NC(=O)[C@@H](N)CCCCNC(=O)CC[C@H](NC(=O)CC[C@H](NC(=O)CCCCCCCCCCCCCCCCCCC(=O)O)C(=O)O)C(=O)O)C(=O)N[C@@H](CC(N)=O)C(=O)N[C@@H]([C@@H](C)O)C(=O)N[C@@H](C)C(=O)N[C@@H]([C@@H](C)O)C(=O)N1)[C@@H](C)O)C(=O)N1CCC[C@H]1C(=O)N[C@@H](CO)C(=O)N[C@@H](CO)C(=O)N[C@H](C(=O)N[C@@H](CC(N)=O)C(=O)N[C@H](C(=O)NCC(=O)N[C@@H](Cc1c[nH]cn1)C(=O)N[C@@H](CC(N)=O)C(=O)N[C@H](C(=O)N[C@@H](Cc1ccc(O)cc1)C(N)=O)[C@@H](C)O)C(C)C)[C@@H](C)O [Example 87] (H-K([γGlu-γGlu-C20 diacid])CNTATCATQRLAEFLRHSSPNFGAIPSSTNVGHNTY-NH2; disulfide 2-7) | 144 (≈ 659 µg/mL) | ≥ 200 | 156 (≈ 714 µg/mL) | 146 (≈ 668 µg/mL) | ≥ 200 | ≥ 200 | ≥ 200 | ≥ 200 | 94.5 | 29 | 20 | 2.07 | 45.6 | 45.6 | 45.6 | 35.6 | 35.6 | 35.6 | 35.6 | 35.6 | IC50 ([5]; Table 4, read-out: hAmylin-R bind IC50): 0.633 nM; Ratio hCT/hAmylin binding [5, 22]: 35.6; Ratio hCT/hAmylin binding [5, 23]: 35.6
CC[C@H](C)[C@H](NC(=O)[C@H](C)NC(=O)CNC(=O)[C@H](Cc1ccccc1)NC(=O)[C@H](CC(N)=O)NC(=O)[C@@H]1CCCN1C(=O)[C@H](CO)NC(=O)[C@H](CO)NC(=O)[C@H](Cc1c[nH]cn1)NC(=O)[C@H](CCCNC(=N)N)NC(=O)[C@H](CC(C)C)NC(=O)[C@H](Cc1ccccc1)NC(=O)[C@H](CCC(=O)O)NC(=O)[C@H](C)NC(=O)[C@H](CC(C)C)NC(=O)[C@H](CCCNC(=N)N)NC(=O)[C@H](CCC(N)=O)NC(=O)[C@@H](NC(=O)[C@H](C)NC(=O)[C@@H]1CSSC[C@H](NC(=O)[C@@H](N)CCCCNC(=O)CC[C@H](NC(=O)CCCCCCCCCCCCCCCCCCC(=O)O)C(=O)O)C(=O)N[C@@H](CC(N)=O)C(=O)N[C@@H]([C@@H](C)O)C(=O)N[C@@H](C)C(=O)N[C@@H]([C@@H](C)O)C(=O)N1)[C@@H](C)O)C(=O)N1CCC[C@H]1C(=O)N[C@@H](CO)C(=O)N[C@@H](CO)C(=O)N[C@H](C(=O)N[C@@H](CC(N)=O)C(=O)N[C@H](C(=O)NCC(=O)N1CCC[C@H]1C(=O)N[C@@H](CCCNC(=N)N)C(=O)N[C@H](C(=O)N[C@@H](Cc1ccc(O)cc1)C(N)=O)[C@@H](C)O)C(C)C)[C@@H](C)O [Example 117] (H-K([γGlu-C20 diacid])CNTATCATQRLAEFLRHSSPNFGAIPSSTNVGPRTY-NH2; disulfide 2-7; N-terminus assumed) | ≥ 200 | ≥ 200 | ≥ 200 | ≥ 200 | 147 (≈ 654 µg/mL) | ≥ 200 | ≥ 200 | ≥ 200 | 15.4 | 61 | 4 | 0.339 | 45.5 | 45.5 | 45.5 | 38.6 | 38.6 | 38.6 | 38.6 | 38.6 | Ratio hCT/hAmylin binding [5, 22]: 38.6; Ratio hCT/hAmylin binding [5, 23]: 38.6
